# Reference: PubChem BioAssay (NCI)
#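 96-well plates; 48 h exposure; 5 concentrations. Endpoints by linear interpolation between flanking doses. Not reached: highest tested concentration assigned. Definition used: TGI = concentration required for complete inhibition of growth.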
# How the values were obtained:
# Experiment in all cases: DTP human tumour cell line panel, 48 h
# ACHN renal = tested on: ACHN renal
# BT-549 breast = tested on: BT-549 breast
# CCRF-CEM leukemia = tested on: CCRF-CEM leukemia
# COLO 205 colon = tested on: COLO 205 colon
# HCC-2998 colon = tested on: HCC-2998 colon
# HCT-116 colon = tested on: HCT-116 colon
# M14 melanoma = tested on: M14 melanoma
# MALME-3M melanoma = tested on: MALME-3M melanoma
# MCF7 breast = tested on: MCF7 breast
# MDA-MB-231 breast = tested on: MDA-MB-231 breast
# NCI-H522 lung = tested on: NCI-H522 lung
# OVCAR-4 ovarian = tested on: OVCAR-4 ovarian
# OVCAR-5 ovarian = tested on: OVCAR-5 ovarian
# OVCAR-8 ovarian = tested on: OVCAR-8 ovarian
# RPMI-8226 leukemia = tested on: RPMI-8226 leukemia
# RXF 393 renal = tested on: RXF 393 renal
# SK-MEL-5 melanoma = tested on: SK-MEL-5 melanoma
# SW-620 colon = tested on: SW-620 colon
# UACC-62 melanoma = tested on: UACC-62 melanoma
# UO-31 renal = tested on: UO-31 renal
Structure (SMILES),TGI (ACHN renal) [µM],TGI (BT-549 breast) [µM],TGI (CCRF-CEM leukemia) [µM],TGI (COLO 205 colon) [µM],TGI (HCC-2998 colon) [µM],TGI (HCT-116 colon) [µM],TGI (M14 melanoma) [µM],TGI (MALME-3M melanoma) [µM],TGI (MCF7 breast) [µM],TGI (MDA-MB-231 breast) [µM],TGI (NCI-H522 lung) [µM],TGI (OVCAR-4 ovarian) [µM],TGI (OVCAR-5 ovarian) [µM],TGI (OVCAR-8 ovarian) [µM],TGI (RPMI-8226 leukemia) [µM],TGI (RXF 393 renal) [µM],TGI (SK-MEL-5 melanoma) [µM],TGI (SW-620 colon) [µM],TGI (UACC-62 melanoma) [µM],TGI (UO-31 renal) [µM]
Nc1ncnc2c1ncn2[C@H]1CC[C@@H](NO)C1,> 100,> 100,> 100,> 100,> 100,> 100,> 100,> 100,> 100,> 100,> 100,> 100,> 100,> 100,> 100,> 100,> 100,> 100,> 100,> 100
CC(=O)OCC(OC(C)=O)C(OC(C)=O)C(OC(C)=O)C(C=NN(C(C)=O)S(=O)(=O)c1ccc(/C=C2\NC(=O)NC2=O)cc1)OC(C)=O (stereo not given),> 100,> 100,> 100,> 100,> 100,> 100,> 100,> 100,> 100,> 100,> 100,> 100,> 100,> 100,> 100,> 100,> 100,> 100,> 100,> 100
NS(=O)(=O)c1ccc(Nc2c3ccccc3nc3c(C(=O)NCCO)cccc23)cc1,0.917,0.311,> 1,0.206,0.333,0.412,0.326,0.268,0.176,0.362,0.272,0.454,0.358,0.902,0.337,0.237,0.221,0.277,0.303,0.532
Cc1ccc(NC2=N/C(=C/c3ccccc3)C(Cl)=N2)cc1,> 100,> 100,> 100,> 100,> 100,> 100,> 100,> 100,> 100,> 100,> 100,> 100,> 100,> 100,> 100,> 100,> 100,> 100,> 100,> 100
CN(C)CCCCN1c2ccccc2Sc2ccc(C(=O)c3ccccc3)cc21,7.19,18.8,6.61,3.13,3.97,4.9,3.25,3.33,3.05,5.2,6.84,10.8,13.8,7.91,> 100,4.17,3.42,2.91,6.39,10
COC(=O)/C=C\C(C#N)(C#N)N=Cc1ccc(Br)s1,6.1,16.8,5.5,6.02,34.4,34.8,8.86,4.27,6.1,4.51,3.33,16.3,31.5,19.1,7.11,4.87,27.4,5.53,24.9,7.18
Cc1nc2c(o1)C(=O)c1ccccc1C2=Nc1ccc(N2CCOCC2)cc1,18.9,5.73,> 36.8,55.5,99.8,13.6,3.27,3.25,7.9,8.84,7,12.4,33.6,> 27.7,25.5,2.97,3.2,26.5,3.73,10.2
Cc1ccc2[nH]c3c(c2c1)C1CCC(C(C)(C)C)CC1C1C(=O)N(c2ccc4c(c2)OCO4)C(=O)C31 (stereo not given),3.63,20.6,3.81,12.5,5.84,6.36,17.2,6.14,12.4,5.11,7.18,3.62,13.6,4.28,14.7,4.11,22.9,7.95,22.9,7.28
